# Assay results taken from US9119848B2, “Morphinan derivatives for the treatment of drug overdose” (Alkermes Pharma Ireland Limited, priority 2009, dated 2015).
# What was measured:
# [1] = tested on: opioid dependent, opioid experienced subject; assay: Compound-1 after REMI challenge in an opioid dependent, opioid experienced subject; conditions: 10 mg on Day 2, one opioid dependent subject
# [2] = Elimination of Compound-1 in study subjects
smiles,measurement,setting,value
NC(=O)c1ccc2c(c1O)[C@]13CCN(CC4CC4)[C@H](C2)[C@]1(O)CCC(=O)C3 [Compound-1],time to severe drug withdrawal post-dosing,[1],2 min
same,fraction of Compound-1 eliminated,[2]; by 4 days post-dose,more than 99%
same,half-life,"[2]; human, in vivo, 20 mg",420 min
